Source: ChEMBL document CHEMBL1201862, “PubChem BioAssay data set” (2004)
Activity calls are given as the source filed them.

How the values were obtained:
A-375 = test: A375 melanoma cell viability reduction, dose response, counter-screen for MITF modulator project, cherry-pick samples, set 2 (AID 540335); assay type: functional, cell-based; conditions: Homo sapiens
[1] = target: T1, Microphthalmia-associated transcription factor (Homo sapiens, UniProt O75030); test: TRPM1 promoter luciferase signal decrease, dose response, MITF inhibitor project, cell-based, SK-MEL-5, cherry-picked, set 3 (AID 493073); assay type: functional
T1 sequence (O75030 whole entry): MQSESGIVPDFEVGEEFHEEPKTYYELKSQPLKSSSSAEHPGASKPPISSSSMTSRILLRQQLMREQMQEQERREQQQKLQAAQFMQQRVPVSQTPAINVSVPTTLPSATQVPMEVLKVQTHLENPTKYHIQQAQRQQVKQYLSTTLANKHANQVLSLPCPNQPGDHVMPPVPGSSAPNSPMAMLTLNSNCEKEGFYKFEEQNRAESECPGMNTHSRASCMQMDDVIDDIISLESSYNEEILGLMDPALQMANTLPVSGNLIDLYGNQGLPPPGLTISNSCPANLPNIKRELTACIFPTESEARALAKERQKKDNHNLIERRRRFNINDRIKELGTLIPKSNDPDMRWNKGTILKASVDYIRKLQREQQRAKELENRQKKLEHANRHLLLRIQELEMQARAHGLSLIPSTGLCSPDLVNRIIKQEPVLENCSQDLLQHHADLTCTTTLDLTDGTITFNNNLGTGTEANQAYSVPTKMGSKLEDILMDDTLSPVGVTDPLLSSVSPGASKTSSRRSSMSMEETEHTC

[2] = Luminescent dose response cell-based high throughput screening assay for inhibitors of the Janus kinase 2 mutant JAK2V617F. [Related pubchem assays: 1446 (Primary screen.), 1521 (Confirmation assay.), 1486 (Counter screen.)]; assay type: functional
INS1 = test: beta cell apoptosis inhibitors, cytokine rescue, dose response, luminescence, retest (AID 449756); assay type: functional, cell-based; conditions: Rattus norvegicus;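 further: cell death triggered by IL-1 beta plus TNF-alpha plus IFN-gamma mixture; protective hits raise ATP signal compared with cytokine alone wells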
[3] = target: T2, Methionyl-tRNA synthetase, putative (Trypanosoma brucei brucei, UniProt Q38C91); assay type: functional, Trypanosoma brucei brucei strain 927/4 GUTat10.1
T2 sequence (Q38C91 whole entry): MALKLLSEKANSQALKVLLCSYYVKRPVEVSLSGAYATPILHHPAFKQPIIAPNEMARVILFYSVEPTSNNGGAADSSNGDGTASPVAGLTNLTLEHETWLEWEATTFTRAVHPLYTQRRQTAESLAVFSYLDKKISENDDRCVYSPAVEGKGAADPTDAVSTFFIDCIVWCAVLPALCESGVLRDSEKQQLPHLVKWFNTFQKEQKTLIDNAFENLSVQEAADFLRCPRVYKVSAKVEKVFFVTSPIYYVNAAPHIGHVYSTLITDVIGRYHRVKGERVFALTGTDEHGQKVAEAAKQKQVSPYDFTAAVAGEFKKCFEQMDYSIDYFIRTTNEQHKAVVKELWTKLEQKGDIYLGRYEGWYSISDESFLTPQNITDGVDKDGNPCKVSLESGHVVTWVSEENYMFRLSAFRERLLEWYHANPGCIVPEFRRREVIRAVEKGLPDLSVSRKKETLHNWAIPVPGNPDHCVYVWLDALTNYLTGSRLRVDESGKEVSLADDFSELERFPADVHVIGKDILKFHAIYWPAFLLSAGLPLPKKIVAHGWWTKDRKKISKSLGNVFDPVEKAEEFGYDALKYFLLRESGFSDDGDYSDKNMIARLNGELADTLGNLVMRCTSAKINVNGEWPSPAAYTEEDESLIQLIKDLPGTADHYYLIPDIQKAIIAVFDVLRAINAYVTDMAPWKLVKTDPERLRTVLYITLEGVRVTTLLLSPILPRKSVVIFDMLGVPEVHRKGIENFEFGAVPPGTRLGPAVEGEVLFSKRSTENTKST

[4] = Counterscreen for inhibitors of Trypanosoma brucei methionyl tRNA synthetase (MetRS): Luminescence-based cell-based high throughput dose response assay to identify compounds that are cytotoxic to Jurkat human T lymphocyte cells.; assay type: functional
[5] = target: T2, Methionyl-tRNA synthetase, putative; assay type: functional, Trypanosoma brucei brucei strain 927/4 GUTat10.1; remark: listed apart in the source
Prothrombin = Prothrombin (Bos taurus, UniProt P00735); test: thrombin inhibition, dose response, biochemical, fluorescence polarization, uHTS hits (AID 602369); assay type: functional
[6] = target: 26S proteasome non-ATPase regulatory subunit 14 (Homo sapiens, UniProt O00487); test: inhibition of proteasome subunit RPN11 – biochemical, fluorescence polarization, uHTS hits, confirmation (AID 602368); assay type: functional
[7] = target: 72 kDa type IV collagenase (Homo sapiens, UniProt P08253); test: Dose Response validation of uHTS RPN11 inhibitor hits using a MMP-2 Fluorescence assay.; assay type: functional
[8] = target: T3, Probable nicotinate-nucleotide adenylyltransferase (Staphylococcus aureus (strain N315), UniProt P65502); assay type: functional, Staphylococcus aureus subsp. aureus N315;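 on IC50 Mean: confirmatory dose-response retesting of NadD inhibitor hits first found in an ultra-high-throughput screen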
[9] = target: T3, Probable nicotinate-nucleotide adenylyltransferase; assay type: functional, Staphylococcus aureus subsp. aureus N315; conditions: read-out: IC50_Mean
cells = assay type: functional, cell-based
[10] = HEK293 cell cytotoxicity, dose response, cytotoxicity control, plate reader, cherry-picked samples (AID 743446); assay type: functional, cell-based
[11] = MC4R antagonists, dose response, counter-screen for LGR2 antagonist project, cell-based, plate reader, cherry pick (AID 743444); assay type: functional;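 further: transfected HEK 293 cells stimulated with alpha-MSH peptide; potency of inhibitors of the alpha-MSH evoked signal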
[12] = LGR2 antagonists, dose response, cell-based, HEK293, CRE-luciferase reporter, cherry pick, set 2 (AID 743343); assay type: functional;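 further: transfected cells were stimulated with diluted bursicon conditioned medium after compound addition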
HEK293 [13] = test: inhibitors of LMP1-driven NF-kB reporter, dose response, cell-based, HEK293, luciferase, cherry-pick (AID 588343); assay type: functional; conditions: Homo sapiens
[14] = target: Nuclear receptor subfamily 0 group B member 1 (Homo sapiens, UniProt P51843); assay type: functional, cell-based;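 further: HEK293T cells transfected with SF-1 and DAX-1 plus StAR promoter luciferase reporter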
[15] = A549 cell cytotoxicity, dose response, cytotoxicity control, plate reader, cherry-pick, antagonist series (AID 743412); assay type: functional, cell-based
[16] = target: Nucleotide-binding oligomerization domain-containing protein 2 (Homo sapiens, UniProt Q9HC29); test: NOD2 signaling inhibitors, cell-based, luminescence, uHTS, HEK293 (AID 1566); assay type: functional
HEK293 [17] = test: NOD2 signaling inhibitors in MDP-stimulated cells, cell-based, uHTS, luminescence (AID 2001); assay type: functional; conditions: Homo sapiens
HEK293 [18] = test: cells; assay type: functional, cell-based; conditions: Homo sapiens
HEK293 [19] = test: cells; assay type: functional, cell-based; conditions: Homo sapiens; remark: listed apart in the source
HEK293 [20] = test: cells; assay type: functional, cell-based; conditions: Homo sapiens; remark: listed apart in the source
[21] = target: Beta-2 adrenergic receptor (Homo sapiens, UniProt P07550); test: beta2AR agonists driving receptor internalization, dose response, cell-based, FAP fluorogen, flow cytometry, cherry pick 1 (AID 588763); assay type: functional
HEK293 [22] = test: NOD1 signaling inhibitors, primary screen, cell-based, luminescence, uHTS (AID 1578); assay type: functional; conditions: Homo sapiens
Albumin = Albumin (Bos taurus, UniProt P02769); test: Counterscreen for inhibitors of T-cell receptor (TCR)-CD3 interaction: Fluorescence-based biochemical high throughput dose response assay to identify inhibitors of T-cell receptor (TCR)-CD3 interaction using a TAMRA-labeled BSA probe.; assay type: functional
[23] = AlphaScreen signal interference compounds, dose response, artefact control for ARNT-TACC3 interaction inhibitor project, biochemical, luminescence, cherry-pick (AID 651705); assay type: functional;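 further: AlphaScreen bead proximity signal that flags compounds interfering with the detection technology; potency reflects signal decrease which marks the compound as an assay artifact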

T3 sequence (P65502 whole entry): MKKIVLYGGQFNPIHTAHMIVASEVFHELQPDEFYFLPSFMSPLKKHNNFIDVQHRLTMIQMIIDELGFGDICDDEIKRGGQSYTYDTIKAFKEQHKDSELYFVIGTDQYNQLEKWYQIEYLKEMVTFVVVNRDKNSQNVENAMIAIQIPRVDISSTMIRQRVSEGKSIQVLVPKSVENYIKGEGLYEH
Chain of Albumin (P02769 whole entry): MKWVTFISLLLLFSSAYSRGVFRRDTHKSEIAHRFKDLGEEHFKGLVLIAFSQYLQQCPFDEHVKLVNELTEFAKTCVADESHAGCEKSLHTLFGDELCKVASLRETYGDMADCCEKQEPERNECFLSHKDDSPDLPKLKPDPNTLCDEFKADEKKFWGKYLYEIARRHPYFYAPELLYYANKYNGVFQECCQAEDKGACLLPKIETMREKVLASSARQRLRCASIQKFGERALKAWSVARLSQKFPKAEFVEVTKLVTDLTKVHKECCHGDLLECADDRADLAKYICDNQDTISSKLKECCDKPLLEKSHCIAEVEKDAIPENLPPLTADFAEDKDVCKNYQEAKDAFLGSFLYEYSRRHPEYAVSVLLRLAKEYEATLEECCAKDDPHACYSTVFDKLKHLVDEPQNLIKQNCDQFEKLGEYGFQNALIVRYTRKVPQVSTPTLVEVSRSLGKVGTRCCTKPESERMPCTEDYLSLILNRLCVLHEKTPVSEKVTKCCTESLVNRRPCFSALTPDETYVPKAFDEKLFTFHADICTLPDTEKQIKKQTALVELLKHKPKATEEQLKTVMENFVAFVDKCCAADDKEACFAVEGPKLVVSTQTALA
Chain of Beta-2 adrenergic receptor (P07550 whole entry): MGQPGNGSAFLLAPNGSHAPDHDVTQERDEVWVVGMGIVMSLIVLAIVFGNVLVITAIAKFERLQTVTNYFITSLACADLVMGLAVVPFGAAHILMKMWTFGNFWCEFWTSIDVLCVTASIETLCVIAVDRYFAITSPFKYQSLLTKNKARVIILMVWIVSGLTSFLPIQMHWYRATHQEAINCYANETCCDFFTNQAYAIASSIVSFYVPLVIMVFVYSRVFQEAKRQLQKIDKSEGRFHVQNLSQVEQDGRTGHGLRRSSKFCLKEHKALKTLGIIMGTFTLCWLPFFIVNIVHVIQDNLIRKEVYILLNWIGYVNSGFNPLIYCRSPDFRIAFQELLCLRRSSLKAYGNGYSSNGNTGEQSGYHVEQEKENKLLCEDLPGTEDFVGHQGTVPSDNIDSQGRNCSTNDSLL
Chain of 26S proteasome non-ATPase regulatory subunit 14 (O00487 whole entry): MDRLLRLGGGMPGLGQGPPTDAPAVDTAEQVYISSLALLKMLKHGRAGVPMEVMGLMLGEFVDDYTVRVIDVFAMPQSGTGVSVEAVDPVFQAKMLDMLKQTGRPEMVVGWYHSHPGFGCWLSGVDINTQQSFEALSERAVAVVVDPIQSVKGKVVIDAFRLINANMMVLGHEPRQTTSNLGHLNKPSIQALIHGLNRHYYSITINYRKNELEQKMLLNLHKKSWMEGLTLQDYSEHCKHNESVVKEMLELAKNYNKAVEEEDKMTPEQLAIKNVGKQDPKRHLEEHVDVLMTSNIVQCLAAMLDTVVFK
Chain of Nuclear receptor subfamily 0 group B member 1 (P51843 whole entry): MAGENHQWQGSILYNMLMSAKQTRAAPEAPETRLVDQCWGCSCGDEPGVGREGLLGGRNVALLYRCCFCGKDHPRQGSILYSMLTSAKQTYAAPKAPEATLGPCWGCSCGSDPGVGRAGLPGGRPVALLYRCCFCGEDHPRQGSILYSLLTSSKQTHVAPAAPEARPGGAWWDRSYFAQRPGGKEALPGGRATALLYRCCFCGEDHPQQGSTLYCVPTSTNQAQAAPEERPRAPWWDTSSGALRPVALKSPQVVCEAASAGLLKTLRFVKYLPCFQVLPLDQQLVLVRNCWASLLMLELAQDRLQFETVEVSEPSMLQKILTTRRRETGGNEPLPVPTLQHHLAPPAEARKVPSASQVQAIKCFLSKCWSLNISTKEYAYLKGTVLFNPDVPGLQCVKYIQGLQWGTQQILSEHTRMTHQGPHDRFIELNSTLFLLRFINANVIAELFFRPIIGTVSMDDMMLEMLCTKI
Chain of Nucleotide-binding oligomerization domain-containing protein 2 (Q9HC29 whole entry, the tested form may be a part): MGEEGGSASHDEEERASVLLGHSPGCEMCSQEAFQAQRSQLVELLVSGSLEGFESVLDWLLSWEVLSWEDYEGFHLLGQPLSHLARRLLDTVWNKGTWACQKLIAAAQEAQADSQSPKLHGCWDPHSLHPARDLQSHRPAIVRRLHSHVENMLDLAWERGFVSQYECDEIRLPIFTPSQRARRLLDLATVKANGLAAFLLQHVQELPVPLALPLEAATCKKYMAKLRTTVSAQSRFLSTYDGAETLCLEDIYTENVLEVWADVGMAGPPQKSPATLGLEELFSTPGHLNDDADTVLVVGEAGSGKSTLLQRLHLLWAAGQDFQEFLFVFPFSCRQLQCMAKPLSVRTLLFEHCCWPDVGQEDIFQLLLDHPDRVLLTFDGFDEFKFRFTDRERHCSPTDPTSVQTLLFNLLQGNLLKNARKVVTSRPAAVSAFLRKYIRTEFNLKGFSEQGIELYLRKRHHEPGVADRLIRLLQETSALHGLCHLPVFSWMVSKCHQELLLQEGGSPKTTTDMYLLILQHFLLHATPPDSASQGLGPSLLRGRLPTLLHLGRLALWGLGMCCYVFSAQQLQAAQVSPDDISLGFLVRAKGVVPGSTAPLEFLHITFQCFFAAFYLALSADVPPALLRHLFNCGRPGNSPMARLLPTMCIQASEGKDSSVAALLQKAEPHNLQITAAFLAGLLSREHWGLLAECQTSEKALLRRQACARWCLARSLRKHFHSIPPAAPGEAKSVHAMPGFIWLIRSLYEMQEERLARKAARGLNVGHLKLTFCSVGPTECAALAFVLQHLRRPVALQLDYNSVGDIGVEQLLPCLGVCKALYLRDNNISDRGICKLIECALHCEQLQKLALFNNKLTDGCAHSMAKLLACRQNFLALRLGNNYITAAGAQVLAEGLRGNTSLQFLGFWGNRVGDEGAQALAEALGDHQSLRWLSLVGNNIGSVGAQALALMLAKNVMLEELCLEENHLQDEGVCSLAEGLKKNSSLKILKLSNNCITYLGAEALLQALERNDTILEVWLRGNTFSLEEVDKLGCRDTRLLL
Chain of 72 kDa type IV collagenase (P08253 whole entry): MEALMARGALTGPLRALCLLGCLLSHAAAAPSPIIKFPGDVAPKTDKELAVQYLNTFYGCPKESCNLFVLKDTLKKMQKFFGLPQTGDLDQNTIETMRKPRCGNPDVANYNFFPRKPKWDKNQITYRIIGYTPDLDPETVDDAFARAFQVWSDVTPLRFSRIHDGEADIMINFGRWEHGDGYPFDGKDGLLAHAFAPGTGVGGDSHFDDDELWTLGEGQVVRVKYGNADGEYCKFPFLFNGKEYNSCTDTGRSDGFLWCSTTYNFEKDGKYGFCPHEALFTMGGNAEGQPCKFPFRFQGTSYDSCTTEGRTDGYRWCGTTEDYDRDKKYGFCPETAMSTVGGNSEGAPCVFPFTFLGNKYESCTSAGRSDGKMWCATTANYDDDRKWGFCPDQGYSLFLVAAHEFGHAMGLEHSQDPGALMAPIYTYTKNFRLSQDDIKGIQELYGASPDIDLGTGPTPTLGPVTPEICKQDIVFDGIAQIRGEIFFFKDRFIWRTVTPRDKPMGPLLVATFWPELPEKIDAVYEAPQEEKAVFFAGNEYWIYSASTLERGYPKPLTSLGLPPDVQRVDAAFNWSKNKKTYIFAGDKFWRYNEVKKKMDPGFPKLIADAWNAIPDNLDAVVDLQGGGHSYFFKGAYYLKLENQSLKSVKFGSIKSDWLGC

Structure (SMILES): CCCCn1c(=N)n(CC(=O)c2ccc(Br)s2)c2ccccc21
- AC50 (A-375): 30.3 µM (active)
- AC50 [1]: 7.45 µM (active)
- IC50 [2]: 1.42 µM (active)
- AC50 (INS1): 7.71 µM (active)

Structure (SMILES): COc1ccc(CNC(=O)CSc2n[nH]c3c4cc(C)ccc4nc-3n2)cc1
- IC50 [3]: 11 µM (inactive)
- IC50 [4]: 83.3 µM (inactive)
- IC50 [5]: 0.72 µM (active)

Structure (SMILES): CCOC(=O)CSc1nc2ccccc2n1C(=O)OCC
- IC50 (Prothrombin): 28.1 µM (active)
- IC50 [6]: 21.1 µM (active)
- IC50 [7]: > 100 µM (inactive)

Structure (SMILES): C=CCNC(=S)NNC(=O)c1ccc(=O)n(Cc2ccc(Cl)cc2Cl)c1
- IC50 [3]: 281 µM (inactive)
- IC50 [4]: 83.3 µM (inactive)
- IC50 [5]: 13.4 µM (inactive)

Structure (SMILES): O=C(CSc1nnc(-c2cc3ccccc3cc2O)n1Cc1ccco1)N1CCc2ccccc2C1
- IC50 [8]: 9.71 µM (active)
- IC50 [9]: 30.6 µM (active)

Structure (SMILES): COC(=O)c1ccc2nc(-c3ccc4c(c3)OCO4)cn2c1
- IC50 (cells): > 67.5 µM (inactive)
- AC50 [10]: > 52 µM (inactive)
- AC50 [11]: 2.22 µM (active)
- AC50 [12]: 2.13 µM (active)
- AC50 (HEK293 [13]): 1.57 µM (active)
- IC50 [14]: > 0.0925 µM (active)
- AC50 [15]: > 52 µM (inactive)

Structure (SMILES): O=S(=O)(Nc1cccc(-c2cn3cccnc3n2)c1)c1ccc(-c2ccccc2)cc1
- EC50 [16]: 10.3 µM (active)
- IC50 (HEK293 [17]): 6.98 µM (active)
- IC50 (HEK293 [18]): 14.5 µM (active)
- IC50 (HEK293 [19]): > 20 µM (inactive)
- IC50 (HEK293 [20]): 6.52 µM (active)
- EC50 [21]: 4.33 µM (active)
- EC50 (HEK293 [22]): 8.6 µM (active)

Structure (SMILES): CC(C)C(=O)Nc1ccc(C(=O)NNC(=S)NC(=O)c2ccco2)cc1
- IC50 (Albumin): > 94.1 µM (inactive)

Structure (SMILES): COc1ccc(C2c3ccc(O)cc3Oc3ncn4nc(-c5ccccn5)nc4c32)cc1OC (stereo unspecified)
- AC50 [23]: 122 µM (active)
